Results reported in the NIST ThermoML archive (doi:10.1016/j.jct.2006.01.012).
Numbers after ± are expanded uncertainties.

Settings: Liquid; for viscosity: Capillary tube (Ostwald / Ubbelohde) method; for mass density: isochoric method

With `CCCCCCC` [heptane] the viscosity (298.24 K, 100 kPa) was 0.388 ± 0.013 mPa·s, the mass density (302.46 K, 100 kPa) was 675.91 ± 0.82 kg/m3 and the viscosity (306.79 K, 5000 kPa) was 0.3779 ± 0.012 mPa·s. For the same compound, the viscosity (306.79 K, 10000 kPa) was 0.4013 ± 0.013 mPa·s, the mass density (307.61 K, 4760 kPa) was 676.1 ± 0.8 kg/m3 and the mass density (307.61 K, 11941 kPa) was 683.2 ± 0.8 kg/m3. The mass density (314.57 K, 100 kPa) was 665.62 ± 0.81 kg/m3, the viscosity (323.93 K, 100 kPa) was 0.2979 ± 0.0098 mPa·s and the mass density (329.71 K, 100 kPa) was 652.43 ± 0.8 kg/m3. It also gave a viscosity (337.54 K, 5000 kPa) of 0.28 ± 0.01 mPa·s, a viscosity (337.54 K, 10000 kPa) of 0.2978 ± 0.0098 mPa·s and a mass density (342.94 K, 100 kPa) of 640.61 ± 0.78 kg/m3. The viscosity (348.64 K, 100 kPa) was 0.2354 ± 0.0078 mPa·s, the mass density (353.76 K, 100 kPa) was 630.86 ± 0.77 kg/m3 and the viscosity (369.35 K, 5000 kPa) was 0.2116 ± 0.007 mPa·s. The viscosity (369.35 K, 10000 kPa) was 0.2259 ± 0.0075 mPa·s, the mass density (387 K, 5783 kPa) was 610 ± 0.7 kg/m3 and the mass density (387 K, 12460 kPa) was 620.7 ± 0.8 kg/m3. The viscosity (407.85 K, 5000 kPa) was 0.1595 ± 0.0053 mPa·s, the viscosity (407.85 K, 10000 kPa) was 0.1718 ± 0.0057 mPa·s and the viscosity (449.64 K, 5000 kPa) was 0.122 ± 0.004 mPa·s. It also gave a viscosity (449.64 K, 10000 kPa) of 0.1338 ± 0.0045 mPa·s, a mass density (450.12 K, 4350 kPa) of 543.7 ± 0.7 kg/m3 and a mass density (450.12 K, 11492 kPa) of 564.4 ± 0.7 kg/m3. It also gave a viscosity (473.54 K, 5000 kPa) of 0.1012 ± 0.0035 mPa·s, a viscosity (473.54 K, 10000 kPa) of 0.113 ± 0.004 mPa·s and a mass density (500.47 K, 6791 kPa) of 492.7 ± 0.6 kg/m3. The mass density (500.47 K, 10720 kPa) was 512.8 ± 0.6 kg/m3.

In the case of `CCCCCCCC` [octane], the viscosity (298.24 K, 100 kPa) is reported as 0.508 ± 0.017 mPa·s, the mass density (301.84 K, 100 kPa) is reported as 695.24 ± 0.85 kg/m3 and the viscosity (308.72 K, 5000 kPa) is reported as 0.4786 ± 0.016 mPa·s. The viscosity (308.72 K, 10000 kPa) was 0.5043 ± 0.017 mPa·s, the mass density (311.89 K, 4680 kPa) was 691.6 ± 0.8 kg/m3 and the mass density (311.89 K, 10642 kPa) was 697.4 ± 0.9 kg/m3. For the same compound, the mass density (316.49 K, 100 kPa) was 683.55 ± 0.83 kg/m3, the viscosity (323.93 K, 100 kPa) was 0.3829 ± 0.013 mPa·s and the mass density (329.76 K, 100 kPa) was 672.69 ± 0.82 kg/m3. It also gave a mass density (340.94 K, 100 kPa) of 663.24 ± 0.81 kg/m3, a viscosity (348.64 K, 100 kPa) of 0.3034 ± 0.01 mPa·s and a viscosity (349.46 K, 5000 kPa) of 0.3187 ± 0.01 mPa·s. It also gave a viscosity (349.46 K, 10000 kPa) of 0.3364 ± 0.011 mPa·s, a mass density (358.76 K, 100 kPa) of 648.1 ± 0.8 kg/m3 and a mass density (367.61 K, 5873 kPa) of 648.8 ± 0.8 kg/m3. For the same compound, the mass density (367.61 K, 11461 kPa) was 656.2 ± 0.8 kg/m3, the viscosity (394.81 K, 5000 kPa) was 0.2197 ± 0.0073 mPa·s and the viscosity (394.81 K, 10000 kPa) was 0.2334 ± 0.0077 mPa·s. It also gave a viscosity (436.86 K, 5000 kPa) of 0.1672 ± 0.0056 mPa·s, a viscosity (436.86 K, 10000 kPa) of 0.1799 ± 0.006 mPa·s and a mass density (437.97 K, 6430 kPa) of 589.6 ± 0.7 kg/m3. For the same compound, the mass density (437.97 K, 11084 kPa) was 599.5 ± 0.7 kg/m3, the viscosity (467.46 K, 5000 kPa) was 0.1338 ± 0.0045 mPa·s and the viscosity (467.46 K, 10000 kPa) was 0.1458 ± 0.0049 mPa·s. The mass density (516.64 K, 5712 kPa) was 505.4 ± 0.6 kg/m3 and the mass density (516.64 K, 9791 kPa) was 525.2 ± 0.6 kg/m3.
